Laboratory results published in US20260257992A1, “AGONISTS OF SMALL HETERODIMER PARTNER FOR CANCER THERAPY” (THE BOARD OF TRUSTEES OF THE UNIVERSITY OF ILLINOIS, priority 2023, published 2026).

Key:
[1] = test system: EMT6 metastatic lesions; test: EMT6 metastatic mammary cancer (intravenous graft); type: in vivo, mouse
Source text: FIG. 7A-7I. DSHN-OMe reduces tumor and metastatic growth in murine models, in a myeloid cell-NR0B2 dependent manner. (A) E0771 cells were grafted into control mice (NR0B2^+/+; LysMCre^+) or mice where NR0B2 was knocked out in myeloid immune cells (NR0B2^fl/fl; LysMCre^+). 8 days post-graft, daily treatment with placebo or DSHN-OMe was initiated and subsequent tumor growth followed through time. Different letters denote statistical difference on the final measurement (day 21, 2-Way ANOVA followed by Šidák's post-hoc, N=5-8). (B) Waterfall plot illustration of data in (A) showing tumor volume at final day of measurement. Asterisk indicates significant difference (Chi-squared test, P<0.05). (C) Lewis Lung cells were grafted into control mice (NR0B2^+/+; LysMCre^+) or mice where NR0B2 was knocked out in myeloid immune cells (NR0B2^fl/fl; LysMCre^+). 10 days post-graft, daily treatment with placebo or DSHN-OMe was initiated and subsequent tumor growth followed through time. Different letters denote statistical difference on the final measurement (day 21, 2-Way ANOVA followed by Šidák's post-hoc, N=8-13). (D) Waterfall plot illustration of data in (C) showing tumor volume at final day of measurement. Asterisk indicates significant difference (Chi-squared test, P<0.05). (E) DSHN-OMe is an effective treatment against metastatic 4T1 mammary cancer growth. 4T1 cells were grafted intravenously, and lung metastatic lesions allowed to establish for 3d before treatment commenced. Metastatic burden through time is presented above the metastatic burden on the final day of imaging in the middle panel (N=12-17/group, mixed-effects model followed by Tukey's multiple comparison test). Representative luciferase images in the bottom panel. (F) DSHN-OMe is an effective treatment against metastatic EMT6 mammary cancer growth. EMT6 cells were grafted intravenously, and lung metastatic lesions allowed to establish for 3d. DSHN-OMe was administered on days 4, 5, 8, 9 and 10 post-graft. 11d post-graft lungs were imaged ex vivo for luciferase (N=15/group). (G) EMT6 metastatic lungs were assessed for Ki67 mRNA and (H) FOXP3 mRNA. (I) EMT6 metastatic lungs were assessed for CD8+ cytotoxic T cells (CD8+). Asterisks indicate statistically significant differences.
Metastatic breast cancer urgently requires new therapeutic approaches. Therefore, we tested the ability of DSHN-OMe to reduce the subsequent growth of established metastases. 4T1 cells were introduced intravenously and lesions allowed to establish for 3d. Since ICB has been approved for a subset of TNBC patients, we also included groups treated with αPDL1. […] We confirmed these findings using a different model of murine TNBC, EMT6. […]

[2] = test system: Lewis Lung tumors; test: Lewis Lung tumors grown in the flank; type: in vivo, mouse
Source text: FIG. 7A-7I. DSHN-OMe reduces tumor and metastatic growth in murine models, in a myeloid cell-NR0B2 dependent manner. (A) E0771 cells were grafted into control mice (NR0B2^+/+; LysMCre^+) or mice where NR0B2 was knocked out in myeloid immune cells (NR0B2^fl/fl; LysMCre^+). 8 days post-graft, daily treatment with placebo or DSHN-OMe was initiated and subsequent tumor growth followed through time. Different letters denote statistical difference on the final measurement (day 21, 2-Way ANOVA followed by Šidák's post-hoc, N=5-8). (B) Waterfall plot illustration of data in (A) showing tumor volume at final day of measurement. Asterisk indicates significant difference (Chi-squared test, P<0.05). (C) Lewis Lung cells were grafted into control mice (NR0B2^+/+; LysMCre^+) or mice where NR0B2 was knocked out in myeloid immune cells (NR0B2^fl/fl; LysMCre^+). 10 days post-graft, daily treatment with placebo or DSHN-OMe was initiated and subsequent tumor growth followed through time. […] (G) EMT6 metastatic lungs were assessed for Ki67 mRNA and (H) FOXP3 mRNA. (I) EMT6 metastatic lungs were assessed for CD8+ cytotoxic T cells (CD8+). […]
Since Tregs are considered a problem common to many solid tumor types, we reasoned that DSHN-OMe should have broad efficacy. To test this, we evaluated the ability of DSHN-OMe to influence the growth of murine Lewis Lung tumors grown in the flank.

[3] = Low cellular toxicity screen; type: cell-based; set-up: key: ✓: using strict cutoffs with respect to DSHN for passing each metric; X: using strict cutoffs with respect to DSHN for passing each metric; conditions: pass/fail with respect to DSHN
Source text: (§1) Development of a more efficacious NR0B2 agonist. While DSHN was a useful proof-of-concept small molecule, macrophages required high doses and chronic exposure for robust influences on subsequent Tregs expansion. […] Therefore, we synthesized several derivatives of DSHN and screened them using a reporter assay which makes use of the endogenous cholesterol homeostatic feedback loop, where FXR activation upregulates NR0B2, which then inhibits LXR and its normal induction of ABCA1. We then followed this screen with several others with stringent cutoffs: effect on endogenous ABCA1 and IL1β expression, reduction of Treg expansion in either macrophage or DC co-cultures, and low cellular toxicity (FIG. 5A, Table 4).
Resazurin cell viability assay. 20,000 cells were seeded into 96 well f-bottom, black plates (Corning Costar) and cell viability was measured using 100 μL resazurin per well at 0.3 mg/mL (Acros Organics). The fluorescence signal was quantified by plate reader (560 nm excitation/590 nm emission) at 2-3 h.

[4] = test system: ABCA1 mRNA; test: ABCA1 mRNA reduction in Raw cells; type: cell-based; set-up: key: ✓: using strict cutoffs with respect to DSHN for passing each metric; X: using strict cutoffs with respect to DSHN for passing each metric; conditions: pass/fail with respect to DSHN
Source text: as §1

[5] = test system: E0771 tumors; test: Survival after orthotopic graft of a suboptimal number of E0771-luc cells; type: in vivo, mouse; conditions: treatment ceased after 18 days
Source text: We then evaluated DSHN in a model where a low, suboptimal number of E0771-luc cells were grafted orthotopically. Since NR0B2 was also implicated in regulating myeloid cell expression of PD-L1, we investigated the effect of acute DSHN combined with anti-PD-L1 (αPDL1) treatment on subsequent outgrowth of E0771 tumors. Treatment was ceased after 18 days and mice were monitored through time. […] We next assessed the effects of DSHN combined with αPDL1 on growth of primary tumors (optimal number of cells used to establish graft). […] We then evaluated the ability of DSHN to impact established metastatic disease—a stage that is refractory to standard of care therapy and immune checkpoint blockade. […] In summary, the tool compound DSHN provides proof of principle that the NR0B2-myeloid cell-Treg axis can be targeted for the treatment of breast cancer.

[6] = test system: Treg expansion; test: Treg expansion with PBMC-derived DCs of healthy volunteers; type: cell-based, human; conditions: cells from healthy volunteers
[7] = test system: Treg abundance; test: In vivo model of immune tolerance to a chronic antigen

SMILES | EMT6 metastatic burden ([1]; lungs imaged ex vivo 11 d post-graft) | CD8+ cytotoxic T cells in EMT6 metastatic lungs ([1]; mouse, in vivo) | Foxp3 expression in EMT6 metastatic lungs ([1]; mouse, in vivo) | Ki67 mRNA in EMT6 metastatic lungs ([1]; mouse, in vivo) | Lewis Lung tumor growth ([2]; NR0B2-replete mice, daily treatment from day 10, versus placebo) | Lewis Lung anti-tumor effect, dependence on myeloid NR0B2 ([2]; NR0B2fl/fl, LysMCre+ versus replete mice) | Low Toxicity [3] | ABCA1 mRNA reduction (Raw Cells) [4] | Survival of one DSHN-only treated mouse, no palpable tumor ([5]; post graft) | Survival time, combined with αPDL1 ([5]; versus placebo) | Treg expansion, human PBMC-derived DCs [6] | Treg abundance in vivo [7]
CCN(CC)S(=O)(=O)c1cccc2cc(C(=O)OC)c(O)cc12 [DSHN-OMe, Methyl 5-(N,N-diethylsulfamoyl)-3-hydroxy-2-naphthoate] | significantly reduced metastatic burden | increase in the relative abundance of CD8+ cytotoxic T cells | decreased Foxp3 expression | decreased | significantly reduced tumor growth | only observed in mice with replete myeloid cell expression of NR0B2 | ✓ | ✓ | – | – | – | –
CCN(CC)S(=O)(=O)c1cccc2cc(C(=O)O)c(O)cc12 [DSHN, reference compound] | – | – | – | – | – | – | – | – | more than 400 days | significantly increased survival time | decreased Treg expansion | reduce Treg abundance
